Test results: BigSolDB 2.1

CO/N=C1\C[C@]2(C[C@@H]3C[C@@H](C/C=C(\C)C[C@@H](C)/C=C/C=C4\CO[C@@H]5[C@H](O)C(C)=C[C@@H](C(=O)O3)[C@]45O)O2)O[C@H](/C(C)=C/C(C)C)[C@H]1C
solubility (mole fraction)
Details	278.15 K	283.15 K	288.15 K	293.15 K	298.15 K	303.15 K	308.15 K	313.15 K	318.15 K	323.15 K
in ethanol	0.0532	0.0674	0.0814	0.097	0.114	0.133	0.153	0.173	0.196	0.223
in ethylene glycol	0.00364	0.0049	0.00631	0.00796	0.00975	0.0117	0.0137	0.0157	0.0181	0.021
in isopropanol	0.00799	0.0107	0.0139	0.0178	0.0211	0.0253	0.0296	0.0346	0.04	0.0455
in methanol	0.0243	0.0306	0.0383	0.0454	0.0545	0.0634	0.0729	0.0822	0.0927	0.105
in water	3.75e-06	5.13e-06	6.71e-06	8.61e-06	1.08e-05	1.33e-05	1.59e-05	1.85e-05	2.14e-05	2.49e-05
